The numbers were not newly measured in patent US8653307B2 (California Institute of Technology, priority 2011, dated 2014), which cites them from elsewhere.

The target in data set [1] is PI3Kα (Homo sapiens, UniProt P42336).
In data set [2] the test system is CaCo (human colon). Particulars: CaCo (human colon) cells; read-out: IC50 (cytotoxicity).
In data set [3] the test system is MDA-468 breast cancer line. Particulars: read-out: IC50 (cytotoxicity).
For data set [4], the system named is LoVo (human colon) cells. The settings on record: read-out: IC50 (cytotoxicity).

Chain of PI3Kα (P42336 whole entry): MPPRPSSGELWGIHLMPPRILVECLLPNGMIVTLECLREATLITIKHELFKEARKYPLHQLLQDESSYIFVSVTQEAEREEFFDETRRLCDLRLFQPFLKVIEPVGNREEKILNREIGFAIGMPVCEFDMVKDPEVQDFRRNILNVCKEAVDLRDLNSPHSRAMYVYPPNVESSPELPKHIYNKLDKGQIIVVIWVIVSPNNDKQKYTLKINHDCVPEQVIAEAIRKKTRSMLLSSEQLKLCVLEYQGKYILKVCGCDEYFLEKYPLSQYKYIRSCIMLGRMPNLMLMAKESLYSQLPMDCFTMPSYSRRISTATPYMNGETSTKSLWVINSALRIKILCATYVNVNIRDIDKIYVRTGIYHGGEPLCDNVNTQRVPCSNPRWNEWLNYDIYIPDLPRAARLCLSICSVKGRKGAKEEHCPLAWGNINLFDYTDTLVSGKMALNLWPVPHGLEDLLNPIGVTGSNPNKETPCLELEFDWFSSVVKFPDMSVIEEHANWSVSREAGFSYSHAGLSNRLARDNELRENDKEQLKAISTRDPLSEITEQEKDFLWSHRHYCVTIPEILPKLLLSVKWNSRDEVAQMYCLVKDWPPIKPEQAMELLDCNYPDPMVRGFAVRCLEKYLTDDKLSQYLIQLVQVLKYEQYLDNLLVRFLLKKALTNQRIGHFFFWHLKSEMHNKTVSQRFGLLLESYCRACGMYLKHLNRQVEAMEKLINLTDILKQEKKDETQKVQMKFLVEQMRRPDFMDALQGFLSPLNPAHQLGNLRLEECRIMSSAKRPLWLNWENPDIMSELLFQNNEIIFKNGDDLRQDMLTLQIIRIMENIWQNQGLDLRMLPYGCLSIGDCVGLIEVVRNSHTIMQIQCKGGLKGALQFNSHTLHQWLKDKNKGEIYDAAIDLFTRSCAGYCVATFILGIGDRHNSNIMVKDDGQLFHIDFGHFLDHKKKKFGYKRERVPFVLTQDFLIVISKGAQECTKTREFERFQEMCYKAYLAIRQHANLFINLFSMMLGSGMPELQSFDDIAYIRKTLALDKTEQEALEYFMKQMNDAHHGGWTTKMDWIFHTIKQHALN
Chain of PI3Kα (P27986 whole entry partner): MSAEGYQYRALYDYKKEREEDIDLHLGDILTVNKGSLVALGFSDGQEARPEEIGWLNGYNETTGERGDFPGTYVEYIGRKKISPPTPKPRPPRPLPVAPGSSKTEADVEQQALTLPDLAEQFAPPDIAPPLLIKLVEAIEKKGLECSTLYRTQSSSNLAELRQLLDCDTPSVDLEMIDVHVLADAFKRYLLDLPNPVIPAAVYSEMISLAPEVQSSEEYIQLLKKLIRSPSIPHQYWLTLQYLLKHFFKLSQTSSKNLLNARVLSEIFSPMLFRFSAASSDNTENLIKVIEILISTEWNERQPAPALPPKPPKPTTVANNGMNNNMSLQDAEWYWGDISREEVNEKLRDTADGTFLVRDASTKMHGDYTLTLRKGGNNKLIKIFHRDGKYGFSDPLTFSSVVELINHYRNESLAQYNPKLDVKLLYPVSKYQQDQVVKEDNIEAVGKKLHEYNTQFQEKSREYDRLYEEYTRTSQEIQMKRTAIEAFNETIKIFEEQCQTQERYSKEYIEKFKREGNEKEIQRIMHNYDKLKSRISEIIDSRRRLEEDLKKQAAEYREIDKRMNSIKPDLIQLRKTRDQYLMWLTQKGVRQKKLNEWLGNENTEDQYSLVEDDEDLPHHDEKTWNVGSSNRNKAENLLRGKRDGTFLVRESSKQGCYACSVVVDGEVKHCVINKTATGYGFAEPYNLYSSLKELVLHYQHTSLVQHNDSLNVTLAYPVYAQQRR

As to `O=c1cc(N2CCOCC2)oc2c(-c3ccccc3)cccc12` [LY294002], the “selectivity among PI3Ks / related enzymes (in words)” value in data set [1] is “somewhat selective”.

In general, IC50 refers to the concentration needed to halve the response being measured. For liphagal, the IC50 was 0.67 µM in data set [2], 1.58 µM in data set [3] and 0.58 µM in data set [4].
